For assay [1], the target named is T1, PDE4B (human recombinant) (Homo sapiens, UniProt Q07343).
T1 construct: made in house
Description: PDE4B inhibition, fluorescence polarisation (FP) and/or SPA assay. The note with it: n=1 or average of 2 or more readings, accuracy ±about 0.5 log unit, read-out: PDE4B pIC50 (generally in FP assay) (±about 0.5) (converted). It counts as biochemical. From the text:
Human recombinant PDE4B, in particular the 2B splice variant thereof (HSPDE4B2B), is disclosed in WO 94/20079 and also M. M. McLaughlin et al., “A low Km, rolipram-sensitive, cAMP-specific phosphodiesterase from human brain: cloning and expression of cDNA, biochemical characterisation of recombinant protein, and tissue distribution of mRNA”, J. Biol. Chem., 1993, 268, 6470-6476. For example, in Example 1 of WO 94/20079, human recombinant PDE4B is described as being expressed in the PDE-deficient yeast Saccharomyces cerevisiae strain GL62, e.g. after induction by addition of 150 uM CuSO4, and 100,000×g supernatant fractions of yeast cell lysates are described for use in the harvesting of PDE4B enzyme.
The ability of compounds to inhibit catalytic activity at PDE4B or 4D (human recombinant), PDE3 (from bovine aorta), PDE5 (human recombinant) or PDE6 (from bovine retina) can optionally be determined by Scintillation Proximity Assay (SPA) in a 96-well format.
Test compounds (as a solution in DMSO, preferably about 2 microliter (ul) volume of DMSO solution) are preincubated at ambient temperature (room temperature, e.g. 19-23° C.) in Wallac Isoplates (code 1450-514) with PDE enzyme in 50 mM Tris-HCl buffer pH 7.5, 8.3 mM MgCl2, 1.7 mM EGTA, 0.05% (w/v) bovine serum albumin for 10-30 minutes (usually 30 minutes). The enzyme concentration is adjusted so that no more than 20% hydrolysis of the substrate defined below occurs in control wells without compound, during the incubation. For the PDE3, PDE4B and PDE4D assays, [5′,8-3H]Adenosine 3′,5′-cyclic phosphate (Amersham Pharmacia Biotech, code TRK.559; or Amersham Biosciences UK Ltd, Pollards Wood, Chalfont St Giles, Buckinghamshire HP8 4SP, UK) is added to give 0.05 uCi per well and about 10 nM final concentration. For the PDE5 and PDE6 assays, [8-^3H]Guanosine 3′,5′-cyclic phosphate (Amersham Pharmacia Biotech, code TRK.392) is added to give 0.05 uCi per well and about 36 nM final concentration. Plates containing assay mixture, preferably approx. 100 ul volume of assay mixture, are mixed on an orbital shaker for 5 minutes and incubated at ambient temperature for 1 hour. Phosphodiesterase SPA beads (Amersham Pharmacia Biotech, code RPNQ 0150) are added (about 1 mg per well) to terminate the assay. Plates are sealed and shaken and allowed to stand at ambient temperature for 35 minutes to 1 hour (preferably 35 minutes) to allow the beads to settle. Bound radioactive product is measured using a WALLAC TRILUX 1450 Microbeta scintillation counter. For inhibition curves, 10 concentrations (e.g. 1.5 nM-30 uM) of each compound are assayed. Curves are analysed using ActivityBase and XLfit (ID Business Solutions Limited, 2 Ocean Court, Surrey Research Park, Guildford, Surrey GU2 7QB, United Kingdom) Results are expressed as pIC50 values.
The ability of compounds to inhibit catalytic activity at PDE4B (human recombinant) or PDE4D (human recombinant) can optionally be determined by IMAP Fluorescence Polarisation (FP) assay (IMAP Explorer kit, available from Molecular Devices Corporation, Sunnydale, Calif., USA; Molecular Devices code: R8062) in 384-well format.
The IMAP FP assay is able to measure PDE activity in an homogenous, non-radioactive assay format. The FP assay uses the ability of immobilised trivalent metal cations, coated onto nanoparticles (tiny beads), to bind the phosphate group of FI-AMP that is produced on the hydrolysis of fluorescein-labelled (FI) cyclic adenosine mono-phosphate (FI-cAMP) to the non-cyclic FI-AMP form. […] Binding of FI-AMP product to the beads (coated with the immobilised trivalent cations) slows the rotation of the bound FI-AMP and leads to an increase in the fluorescence polarisation ratio of parallel to perpendicular light. Inhibition of the PDE reduces/inhibits this signal increase. […]
A general note: In fluorescence polarisation assays a small probe gives low polarisation when free and higher when bound to something large.

Assay [2] concerns TNF-α production in human PBMC (peripheral blood mononuclear cells). The assay is described as follows: Inhibition of TNF-alpha production in human PBMC (MSD technology). The format is cell-based. Particulars: inhibition of LPS-stimulated TNF-α production in human PBMC; measured and/or mean; read-out: PBMC pIC50 (MSD assay) (converted). How it is done: A 96-well plate (96 MicroWell™ Plates Nunclon™Δ-High Flange Design, Fisher Scientific UK, Bishop Meadow Road, Loughborough LE 11 5 RG, Leicestershire, UK) is prepared by initially adding to column 1 ca. 10 mM of test compound dissolved in DMSO. […] The compound is further diluted with DMSO into columns 2 to 9 by 8 successive 3fold dilutions using the Biomek® FX Laboratory Automation Workstation (Beckman Coulter, Inc., 4300 N. Harbor Boulevard, P.O. Box 3100, Fullerton, Calif. 92834-3100 USA). Column 10 is used as a DMSO negative control (High Signal, 0% response), whilst column 11, which contains 10 mM of the PDE4 inhibitor roflumilast, is used as a positive control (Low Signal, 100% response). About 1 μl (about 1 ul) of compound is transferred to the compound plate using the Biomek® FX.
PBMC cells (peripheral blood mononuclear cells) are prepared from heparinised human blood (using 1% v/v Heparin Sodium 10001 U/ml Endotoxin Free, Leo Laboratories Ltd., Cashel Road, Dublin 12. Ireland, Cat No: PL0043/0149) from normal volunteers using the Accuspin™ System-Histopaque®-1077 essentially (Sigma-Aldrich Company Ltd., The Old Brickyard New Rd, Gillingham Dorset SP8 4XT). About 20 ml of blood is overlaid onto 15 ml Histopaque® in Accuspin™ tubes. The tube is then centrifuged at about 800 g for ca. 20 minutes. The cells are collected from the interface, washed by centrifugation (ca. 1300 g, ca. 10 minutes) and resuspended in RPMI1640 medium (Low endotoxin RPMI1640 medium, Cat No: 31870-025, Invitrogen Corporation Invitrogen Ltd, 3 Fountain Drive, Inchinnan Business Park, Paisley PA4 9RF, UK) containing 10% foetal calf serum, 1% L-glutamine (Invitrogen Corporation, Cat No: 25030024) and 1% penicillin/streptomycin (Invitrogen Corporation, Cat No: 15140-122). Viable cells are counted by trypan blue staining and diluted to 1×10^6 viable cells/ml. About 50 μl (about 50 ul) of diluted cells and about 75 μl (about 75 ul) of LPS (ca. 1 ng/ml final; Sigma Cat No: L-6386) are added to the compound plate, which is then incubated at 37° C., 5% CO2, for 20 hours.
The supernatant is removed and the concentrations of TNF-α are determined by electrochemiluminescence assay using the Meso Scale Discovery (MSD) technology (Meso Scale Discovery, 9238 Gaither Road, Gaithersburg, Md. 20877, USA). See the “TNF-α (TNF-alpha) MSD Assay” described below for typical details.
Using the Biomek FX, 25 μl (25 ul) of MSD Human Serum Cytokine Assay Diluent (Meso Scale Discovery, 9238 Gaither Road, Gaithersburg, Md. 20877) is added to a 96-well High-Bind MSD plate pre-coated with anti-hTNF alpha capture antibody (MA6000) and then incubated for 24 hours at 4° C. to prevent non-specific binding. […]
For the PBMC assay, about 20 μl (ul) of diluted sulfo-TAG antibody (ca. 1 μg/ml final) is added to each well, and the plates/wells are shaken at room temperature for 2 hours. Finally, about 90 μl (ul) of MSD Read Buffer P (diluted to 2.5 times with distilled water) is added and the plates are read on a MSD Sector 6000.
Data analysis is performed with ActivityBase/XC50 module (ID Business Solutions Ltd., 2 Occam Court, Surrey Research Park, Guildford, Surrey, GU2 7QB UK). Data are normalized and expressed as % inhibition using the formula 100*((U-C1)/(C2-C1)) where U is the unknown value, C1 is the average of the high signal (0%) control wells (column 10), and C2 is the average of the low signal (100%) control wells (column 11). […]

The test system of assay [3] is atopic dermatitis patients. Particulars: 0.15% cream versus vehicle and hydrocortisone 17-butyrate (0.1%) cream; cited from earlier work.
Assay [4] deals with atopic dermatitis patients. Particulars: 0.5% ointment, twice daily topical application; cited from earlier work.
In assay [5] the test system is humans with histories of allergic rhinitis. The note with it: orally 500 ug once daily for 9 days; intranasal allergen provocation (pollen extracts); cited from earlier work.
The subject of assay [6] is COPD patients. Particulars: cited from earlier work.

T1 sequence (Q07343 1-564 isoform Q07343-2): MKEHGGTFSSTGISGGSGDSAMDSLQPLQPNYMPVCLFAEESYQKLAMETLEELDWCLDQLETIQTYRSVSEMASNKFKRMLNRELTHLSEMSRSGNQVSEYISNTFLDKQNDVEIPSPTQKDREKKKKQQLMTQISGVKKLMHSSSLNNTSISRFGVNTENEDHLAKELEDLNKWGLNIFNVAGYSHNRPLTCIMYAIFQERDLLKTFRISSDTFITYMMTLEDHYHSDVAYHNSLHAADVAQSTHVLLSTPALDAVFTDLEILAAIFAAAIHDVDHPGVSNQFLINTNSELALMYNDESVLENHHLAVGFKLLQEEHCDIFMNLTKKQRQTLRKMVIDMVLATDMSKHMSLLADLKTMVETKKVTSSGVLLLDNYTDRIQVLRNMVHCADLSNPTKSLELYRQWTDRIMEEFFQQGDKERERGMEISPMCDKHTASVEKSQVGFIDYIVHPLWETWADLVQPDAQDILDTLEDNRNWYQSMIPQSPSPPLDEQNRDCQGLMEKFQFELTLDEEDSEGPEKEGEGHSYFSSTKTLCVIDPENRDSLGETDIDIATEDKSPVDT

`CCn1ncc2c(NC3CCOCC3)c(CNC(=O)c3ccc(-c4ccc(C(=O)NCc5c(C)nc6c(cnn6CC)c5NC5CCOCC5)cc4)cc3)c(C)nc21` [Example 28, N,N′-bis{[1-ethyl-6-methyl-4-(tetrahydro-2H-pyran-4-ylamino)-1H-pyrazolo[3,4-b]pyridin-5-yl]methyl}-4,4′-biphenyldicarboxamide]: the results for the IC50 in assay [1] and in assay [2] were about 25.1 pM and about 126 pM, respectively.
For `Nc1nc2c([nH]1)c(=O)n(CC1CC1)c(=O)n2CC1CC1` [cipamfylline], in assay [3], the “effectiveness in the treatment of atopic dermatitis patients” value is listed as “significantly more effective than vehicle, but significantly less effective than hydrocortisone 17-butyrate (0.1%) cream”.
Turning to `CCc1nc2c(cnn2CC)c(NC2CCOCC2)c1CNC(=O)c1cccc(-c2cccc(C(=O)NCc3c(CC)nc4c(cnn4CC)c3NC3CCOCC3)c2)c1` [Example 10, N,N′-bis{[1,6-diethyl-4-(tetrahydro-2H-pyran-4-ylamino)-1H-pyrazolo[3,4-b]pyridin-5-yl]methyl}-3,3′-biphenyldicarboxamide], the results for the IC50 in assay [1] and in assay [2] were about 100 pM and about 20 pM, respectively.
Regarding `COc1ccc(C2CNC(=O)NC2)cc1O[C@H]1C[C@@H]2CC[C@H]1C2` [CP80,633], the “inflammatory parameters in atopic dermatitis patients” value in assay [4] is on record as “reductions of inflammatory parameters”.
Consider `O=C(Nc1c(Cl)cncc1Cl)c1ccc(OC(F)F)c(OCC2CC2)c1` [roflumilast], for which, in assay [5], the “rhinal airflow during the treatment period (compared to placebo)” value is reported as “effective in improving rhinal airflow”. Moreover, in assay [6] (COPD patients, dose not stated), the “FEV1 in COPD patients” value was “small improvements”.
Turning to `COc1ccc([C@]2(C#N)CC[C@@H](C(=O)O)CC2)cc1OC1CCCC1` [cilomilast], the “forced expiratory volume in 1 s (FEV1) in COPD patients” value in assay [6] (15 mg orally twice daily) is recorded as “appears to improve”. The “antiinflammatory effects in COPD patients” value in assay [6] (COPD patients) is recorded as “appears to have antiinflammatory effects”.

(Values after patent US20090326003A1, “PYRAZOLO (3, 4-B) PYRIDINE DERIVATIVES AS PDE4 INHIBITORS” (priority 2006, published 2009).)
